We go through two compounds from ChEMBL document CHEMBL5727850, “Haloallylamine indole and azaindole derivative inhibitors of lysyl oxidases and uses thereof” (2020).

A short description of this assay: Inhibition Assay: LOX and LOXL2: Lysyl oxidase (LOX) is an extracellular copper dependent enzyme which oxidizes peptidyl lysine and hydroxylysine residues in collagen and lysine residues in elastin to produce peptidyl alpha-aminoadipic-delta-semialdehydes. […] There are five LOX family members; these are LOX, LOXL1, LOXL2, LOXL3 and LOXL4. LOX and LOXL family members can be acquired as recombinant active proteins from commercial sources, or extracted from animal tissues like bovine aorta, tendons, pig skin; or prepared from cell cultures. The inhibitory effects of the compounds of the present invention were tested against the given LOX-LOXL preparation using a high-throughput coupled colorimetric method (Holt A. and Palcic M., A peroxidase-coupled continuous absorbance plate-reader assay for flavin monoamine oxidases, copper-containing amine oxidases and related enzymes. Nat. Protoc. 2006; 1: 2498-2505). The assay was developed using either 384 or 96 well format. Briefly, in a standard 384 well plate assay 25 μL of a dilution of any of the isoenzymes and orthologues in 1.2 M urea, 50 mM sodium borate buffer (pH 8.2) were added into each well in the presence of 1 μM mofegiline and 0.5 mM pargyline (to inhibit SSAO and MAO-B and MAO-A, respectively). […].

One may read the IC50 as the point on the concentration scale where inhibition reaches its midpoint.

As for `Cc1c(-c2cccc(S(=O)(=O)N(C)C)c2)c2nc(C(=O)N(C)C)ccc2n1C/C(F)=C/CN`, the IC50 was above 300 nM. Then `Cc1c(-c2cccc(S(=O)(=O)N(C)C)c2)c2cc(C(=O)N(C)C)ccc2n1C/C(F)=C/CN`, with above 300 nM.
